Experimental data taken from patent US20060069132A1, “Azolecarboxamide herbicides” (priority 2004, published 2006).

Key:
[1] = test system: barnyardgrass; assay: Test B pre-/postemergence herbicide test; type: in vivo, Echinochloa crus-galli; settings: for Barnyardgrass plant response rating: postemergence, scale 0 (no effect) to 100 (complete control)
Method in brief: (§1)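 Seeds were planted and treated preemergence with compounds formulated in a non-phytotoxic solvent mixture containing surfactant, while plants at the 1- to 4-leaf stage (2 to 18 cm) received postemergence sprays. Flooded paddy plants were grown to the 2-leaf stage. After 13 to 15 days in a greenhouse, injury was visually rated 0–100 against untreated controls.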

[2] = test system: Surinam grass; assay: Test B pre-/postemergence herbicide test; type: in vivo, Urochloa decumbens; settings: for Surinam Grass plant response rating: postemergence
Method in brief: (§2)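 Plants compared with untreated controls 13–15 days post-treatment and given a visual 0–100 injury score. Applications: preemergence to seeds; postemergence at 1- to 4-leaf (2–18 cm); paddy species flooded, 2-leaf stage. Vehicle non-phytotoxic, surfactant included.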

[3] = test system: cocklebur; assay: Test B pre-/postemergence herbicide test; type: in vivo, Xanthium strumarium; settings: for Cocklebur plant response rating: postemergence, scale 0 (no effect) to 100 (complete control)
Method in brief: as §1

[4] = test system: corn; assay: Test B pre-/postemergence herbicide test; type: in vivo, Zea mays; settings: for Corn plant response rating: postemergence
Method in brief: as §2

[5] = test system: large crabgrass; assay: Test B pre-/postemergence herbicide test; type: in vivo, Digitaria sanguinalis; settings: for Crabgrass, Large plant response rating: postemergence
Method in brief: as §2

[6] = test system: giant foxtail; assay: Test B pre-/postemergence herbicide test; type: in vivo, Setaria faberi; settings: for Foxtail, Giant plant response rating: postemergence
Method in brief: as §2

[7] = test system: lambsquarters; assay: Test B pre-/postemergence herbicide test; type: in vivo, Chenopodium album; settings: for Lambsquarters plant response rating: postemergence
Method in brief: as §2

[8] = test system: morningglory; assay: Test B pre-/postemergence herbicide test; type: in vivo, Ipomoea coccinea; settings: for Morningglory plant response rating: postemergence
Method in brief: as §1

[9] = test system: pigweed; assay: Test B pre-/postemergence herbicide test; type: in vivo, Amaranthus retroflexus; settings: for Pigweed plant response rating: postemergence
Method in brief: as §2

[10] = test system: rice; assay: Test B pre-/postemergence herbicide test; type: in vivo, Oryza sativa; settings: 0 = no effect, 100 = complete control, preemergence
Method in brief: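 Greenhouse pot assay with simultaneous preemergence (treated seed) and postemergence (2–18 cm seedlings) applications of surfactant-containing, non-phytotoxic solvent formulations. Response scored visually 13–15 days later on a 0–100 scale, 100 meaning complete control.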

[11] = test system: velvetleaf; assay: Test B pre-/postemergence herbicide test; type: in vivo, Abutilon theophrasti; settings: for Velvetleaf plant response rating: postemergence
Method in brief: as §2

[12] = test system: blackgrass; assay: Test B postemergence herbicide test; type: in vivo, Alopecurus myosuroides; settings: postemergence, visual rating, scale 0 (no effect) to 100 (complete control)
Method in brief: (§3)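 Postemergence plants were sprayed with formulated test chemicals at 2 to 18 cm height (1- to 4-leaf stage); paddy species were grown to the 2-leaf stage. After 13 to 15 days in a greenhouse, injury was rated visually against untreated controls on a 0–100 scale (0 = no effect, 100 = complete control).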

[13] = test system: wheat; assay: Test B postemergence herbicide test; type: in vivo, Triticum aestivum; design: key to Wheat plant response rating: 0 = no effect, 100 = complete control; settings: postemergence
Method in brief: (§4)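 Read-out: visual comparison with controls, scored 0 to 100, where 100 means complete control and 0 no effect. Formulated chemicals were applied postemergence to plants 2–18 cm tall (1- to 4-leaf), or to flooded-paddy plants at the 2-leaf stage, then held 13 to 15 days under glass.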

[14] = test system: wild oat; assay: Test B postemergence herbicide test; type: in vivo, Avena fatua; settings: postemergence
Method in brief: as §4

[15] = test system: rice; assay: Test B flooded paddy test; type: in vivo, Oryza sativa; settings: 1000 g ai/ha, scale 0 to 100 (0 no effect, 100 complete control)
Method in brief: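 Formulated test chemicals went onto postemergence plants measuring 2 to 18 cm, at one to four leaves. For the paddy assay, species had reached two leaves. Scoring took place 13–15 days later by eye, relative to untreated plants, using 0 for no effect up to 100 for full control.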

[16] = test system: small flower umbrella sedge; assay: Test B flooded paddy test; type: in vivo, Cyperus difformis; settings: 1000 g ai/ha, scale 0 to 100 (0 no effect, 100 complete control)
Method in brief: as §3

[17] = test system: ducksalad; assay: Test B flooded paddy test; type: in vivo, Heteranthera limosa; settings: 1000 g ai/ha, scale 0 to 100 (0 no effect, 100 complete control)
Method in brief: as §3

[18] = test system: barnyardgrass; assay: Test B flooded paddy test; type: in vivo, Echinochloa crus-galli; settings: 1000 g ai/ha, scale 0 to 100 (0 no effect, 100 complete control)
Method in brief: as §3

[19] = 125 g ai/ha, 0 = no effect, 100 = complete control, preemergence
[20] = 500 g ai/ha, visual rating, 0 = no effect, 100 = complete control, preemergence
[21] = 125 g ai/ha, visual rating, scale 0 (no effect) to 100 (complete control)
[22] = 500 g ai/ha, scale 0 to 100, 0 is no effect, 100 is complete control

CCN(C)C(=O)c1cc(NC(=O)c2cc(C(C)(C)C)nn2CC)c(F)cc1F [Compound 254]
90: Ducksalad plant response rating [17]
10: Barnyardgrass plant response rating ([1]; 500 g ai/ha, visual rating) | Surinam Grass plant response rating [2, 21] | Surinam Grass plant response rating [2, 22] | Corn plant response rating [4, 22] | Crabgrass, Large plant response rating (0 to 100 scale) [5, 19] | Crabgrass, Large plant response rating [5, 21] | Crabgrass, Large plant response rating [5, 22] | Lambsquarters plant response rating [7, 21] | Plant response rating, Morningglory [8, 20] | Pigweed plant response rating [9, 21] | Velvetleaf plant response rating [11, 21] | Velvetleaf plant response rating [11, 22] | Blackgrass plant response rating ([12]; 500 g ai/ha) | Wheat plant response rating [13, 21]
80: Rice plant response rating [15]
40: Plant response rating, Barnyardgrass [1, 20] | Plant response rating, Surinam Grass [2, 20]
100: Plant response rating, Crabgrass, Large [5, 20] | Plant response rating, Lambsquarters [7, 20] | Plant response rating, Pigweed [9, 20]
30: Plant response rating, Foxtail, Giant [6, 20] | Morningglory plant response rating [8, 22] | Pigweed plant response rating [9, 22] | Barnyardgrass plant response rating [18]
60: Sedge, Umbrella plant response rating [16]
20: Cocklebur plant response rating ([3]; 125 g ai/ha, visual rating) | Cocklebur plant response rating ([3]; 500 g ai/ha, visual rating) | Lambsquarters plant response rating [7, 22] | Morningglory plant response rating [8, 21] | Plant response rating, Rice ([10]; 500 g ai/ha, visual rating) | Plant response rating, Velvetleaf [11, 20] | Wheat plant response rating [13, 22] | Oat, Wild plant response rating [14, 21] | Oat, Wild plant response rating [14, 22]
0: Barnyardgrass plant response rating (0 to 100 scale) [1, 19] | Barnyardgrass plant response rating ([1]; 125 g ai/ha, visual rating) | Surinam Grass plant response rating (0 to 100 scale) [2, 19] | Cocklebur plant response rating (0 to 100 scale) [3, 19] | Plant response rating, Cocklebur [3, 20] | Corn plant response rating (0 to 100 scale) [4, 19] | Plant response rating, Corn [4, 20] | Corn plant response rating [4, 21] | Foxtail, Giant plant response rating (0 to 100 scale) [6, 19] | Foxtail, Giant plant response rating [6, 21] | Foxtail, Giant plant response rating [6, 22] | Morningglory plant response rating (0 to 100 scale) [8, 19] | Pigweed plant response rating (0 to 100 scale) [9, 19] | Rice plant response rating (0 to 100 scale) ([10]; 125 g ai/ha) | Velvetleaf plant response rating (0 to 100 scale) [11, 19] | Blackgrass plant response rating ([12]; 125 g ai/ha)
